Measurements published in publication PMC7532997, “Cytotoxic Constituents of the Bark of Hypericum roeperianum towards Multidrug-Resistant Cancer Cells” (Evidence-based Complementary and Alternative Medicine : eCAM, 2020).

Tests used:
[1] = test system: all cancer cell lines tested in the present study; parameters: method as in PMID 24075210; details: cited from earlier work
[2] = test system: CEM-ADR5000 cells; parameters: method as in PMID 31360210; details: cited from earlier work
[3] = test system: HepG2 cells; parameters: method as in PMID 31360210; details: cited from earlier work
[4] = test system: CCRF-CEM cells; assay: Apoptosis by annexin V/PI staining; format: cell-based; details: 24 h, 2 × IC50
Protocol: The CCRF-CEM cells (1 × 10^6; 1 ml) were also treated with HRB, compound 1 and doxorubicin for 24 h (in humidified 5% CO2 atmosphere at 37°C), and apoptosis was further assessed by flow cytometry using the flouresceinisothiocynate- (FITC-) conjugated annexin V/PI assay kit (eBioscience™Annexin V; Invitogen, San Diego, USA), as previously published. Briefly, treated cells were centrifuged at 1200 rpm for 5 min, then washed twice with ice-cold PBS, resuspended in 500 µl binding buffer, and stained with 5 µl FITC-conjugated annexin V ([…]) and 10 µl PI ([…]). After 15 min incubation at room temperature (RT) in the dark, cells were analyzed using a BD Accury C6 Flow Cytometer (BD Biosciences). Cells stained with only annexin V were evaluated as being in early apoptosis. Cells stained with both annexin V and propidium iodide were evaluated as being in late apoptosis or in a necrotic stage.

[5] = test system: caspase 9 in CCRF-CEM cells; assay: Caspase-Glo 9 assay; format: cell-based; details: 6 h, compared to untreated cells
Protocol: (§1) Different concentrations of HRB and compound 1 were used to treat CCRF-CEM cells for 6 h. The activities of caspases were determined using Caspase-Glo 3/7, Caspase-Glo 8, and Caspase-Glo 9 Assay kits (Promega, Mannheim, Germany) by measuring the luminescence using an Infinite M2000 ProTM plate reader (Tecan), as reported previously.

[6] = test system: caspases 3/7 in CCRF-CEM cells; assay: Caspase-Glo 3/7 assay; format: cell-based; details: 6 h, compared to untreated cells
Protocol: as §1

[7] = test system: reactive oxygen species in CCRF-CEM cells; assay: ROS production (H2DCFH-DA staining, flow cytometry); format: cell-based; details: 24 h
Protocol: Various concentrations of HRB and triterpenoid 1 were used to treat CCRF-CEM cells (1 × 10^6 cells); DMSO (solvent control); or hydrogen peroxide (H2O2; positive control). After 24 h incubation in humidified 5% CO2 atmosphere at 37°C, the production of ROS was evaluated using 2′,7′-dichlorodihydrofluorescein diacetate (H2DCFH-DA) (Sigma-Aldrich) staining, as described earlier.

[8] = test system: caspase 8 in CCRF-CEM cells; assay: Caspase-Glo 8 assay; format: cell-based; details: 6 h, compared to untreated cells
Protocol: as §1

[9] = test system: CCRF-CEM cells; assay: Flow cytometric cell cycle distribution (propidium iodide); format: cell-based; details: 24 h
Protocol: Various concentrations of botanical HRB, phytochemical 1, and doxorubicin or DMSO (solvent control) were used to treat CCRF-CEM cells (1 × 10^6 cells). Cells were further incubated for 24 h in humidified 5% CO2 atmosphere at 37°C and analyzed using a BD Accury C6 Flow Cytometer (BD Biosciences, Heidelberg, Germany) by measuring the propidium iodide fluorescence of individual nucleus, as described earlier. Experiments were conducted thrice independently with three parallel measurements.

[10] = test system: CCRF-CEM leukemia cells; assay: Resazurin reduction assay (RRA), 72 h; format: cell-based; details: Homo sapiens, 72 h incubation
Text: (§2) Cell lines used in this work included drug-sensitive and drug-resistant phenotypes of earlier reported origin. They were all provided by Prof. Dr. Thomas Efferth from his cell lines collection; they have being used in cytotoxicity screening by our team for a decade. These include two hematological cancer cell lines, namely, the drug-sensitive CCRF-CEM leukemia cell line and its multidrug-resistant P-gp-over-expressing subline CEM/ADR5000 cells and […] carcinoma cell lines, namely, U87.MG glioblastoma cell line and its EGFR-transfected U87.MGΔEGFR subline, HCT116 (p53^+/+) colon cancer cell line and its knockout clone HCT116 (p53^−/^−), and MDA-MB-231-pcDNA3 breast cancer cell line and its BCRP-transfected multidrug-resistant MDA-MB-231-BCRP clone 23 cell line, as well as the normal AML12 hepatocytes, used to compare with HepG2 liver cancer cells.
(§3) The RRA was applied to evaluate the cytotoxicity of botanicals, the isolated phytochemicals (1–5, 7, and 8), and doxorubicin on the cell growth as reported earlier. Cells treated with various samples at different concentrations were incubated for 72 h in humidified 5% CO2 atmosphere at 37°C. Cells were further coloured with resazurin and incubated for 1–2 h; the fluorescence was further measured with an Infinite M2000 Pro™ plate reader (Tecan, Crailsheim, Germany) at 544 nm as the excitation wavelength and 590 nm as the emission wavelength. The IC50 values represented the concentrations of the sample required to inhibit 50% of cell proliferation and were calculated from a calibration curve by linear regression using Microsoft Excel 2007 [29].

[11] = test system: HCT116 (p53-/-) colon cancer cells; assay: Resazurin reduction assay (RRA), 72 h; format: cell-based; details: Homo sapiens, HCT-116, 72 h incubation
Text: as §2, §3

[12] = test system: U87MG.ΔEGFR glioblastoma cells; assay: Resazurin reduction assay (RRA), 72 h; format: cell-based; details: 72 h incubation
Text: as §2, §3

[13] = test system: U87MG glioblastoma cells; assay: Resazurin reduction assay (RRA), 72 h; format: cell-based; details: Homo sapiens, U-87 MG, 72 h incubation
Text: as §2, §3

[14] = test system: HepG2 hepatocarcinoma cells; assay: Resazurin reduction assay (RRA), 72 h; format: cell-based; details: Homo sapiens; HepG2, 72 h incubation
Text: as §2, §3

[15] = test system: MDA-MB-231-BCRP breast cancer cells; assay: Resazurin reduction assay (RRA), 72 h; format: cell-based; details: 72 h incubation
Text: as §2, §3

[16] = test system: normal AML12 hepatocytes; assay: Resazurin reduction assay (RRA), 72 h; format: cell-based; details: for IC50: Mus musculus, AML12 normal hepatocytes, 72 h incubation; for Selectivity index: IC50 normal AML12 hepatocytes divided by IC50 HepG2
Text: as §2, §3

[17] = test system: HCT116 (p53+/+) colon adenocarcinoma cells; assay: Resazurin reduction assay (RRA), 72 h; format: cell-based; details: Homo sapiens, HCT-116, 72 h incubation
Text: as §2, §3

[18] = test system: MDA-MB-231-pcDNA breast cancer cells; assay: Resazurin reduction assay (RRA), 72 h; format: cell-based; details: 72 h incubation
Text: as §2, §3

[19] = test system: CEM/ADR5000 leukemia cells (P-gp-overexpressing); assay: Resazurin reduction assay (RRA), 72 h; format: cell-based; details: Homo sapiens; CEM/ADR5000, 72 h incubation
Text: as §2, §3

[20] = test system: 9 tested cancer cell lines; assay: Resazurin reduction assay (RRA), whole panel; format: cell-based; details: for IC50: whole cell line panel, 72 h, read-out: IC50 in the cancer cells tested; for cytotoxic effect over the panel (in words): 9 tested cancer cell lines
Text: as §2, §3

[21] = test system: K562 leukemia cells; parameters: method as in PMID 31479710; details: cited from earlier work

| IC50 [10] [µM] | IC50 [11] [µM] | IC50 [12] [µM] | IC50 [13] [µM] | IC50 [14] [µM] | IC50 [15] [µM] | IC50 [17] [µM] | IC50 [18] [µM] | IC50 [19] [µM] | Compound | IC50 [16] [µM] | cytotoxic effect over the panel (in words) [20] | further results |
| --- | --- | --- | --- | --- | --- | --- | --- | --- | --- | --- | --- | --- |
|  |  |  |  |  |  |  |  |  | cudraxanthone I |  |  | IC50 [1]: < 10 µM |
|  |  |  |  |  |  |  |  |  | C=C(C)[C@@H]1CC[C@]2(C(=O)O)CC[C@]3(C)[C@H](CC[C@@H]4[C@@]5(C)CC[C@H](O)C(C)(C)[C@@H]5CC[C@]43C)[C@@H]12 [Compound 6, betulinic acid] |  |  | IC50 [2]: 7.65 µM; IC50 [3]: 44.2 µM |
| 14.4 ± 0.53 | 44.2 ± 3.21 | 14.7 ± 1.55 | 16.2 ± 1.09 | 21.7 ± 3.18 | 15 ± 1.17 | 17.4 ± 1.84 | 16.5 ± 0.74 | 18.3 ± 1.56 | C[C@H]1C(=O)CC[C@@H]2[C@]1(C)CC[C@H]1[C@@]2(C)CC[C@@]2(C(=O)O)C3CC(C)(C)CC[C@]3(C)CC[C@]12C (stereo partly drawn) [Compound 1, trichadonic acid] | 47.3 ± 0.81 |  | annexin V (+)/PI (+) cells [4]: 52.5%; increase of caspase 9 activity [5]: 2.23 fold; increase of caspases 3/7 activity [6]: 2.52 fold; ROS production ([7]; 7.22 µM): 12.35%; ROS production ([7]; 57.76 µM): 68.12%; ROS production ([7]; 2 × IC50): ≤ 68.12%; increase of caspase 8 activity [8]: 2.62 fold; cell cycle arrest (phase, in words) [9]: cell cycle arrest in the Go/G1 phase; cells in sub-G0/G1 phase ([9]; 1/4 × IC50): 1.86%; cells in sub-G0/G1 phase ([9]; 2 × IC50): 17.40%; IC50 [20]: 14.4 to 44.2 µM |
| 16.8 ± 0.96 | > 165 | 45 ± 5.22 | 74.4 ± 4.75 | 44.2 ± 2.65 | 33.6 ± 1.99 | 46.7 ± 3.38 | 43.8 ± 3.47 | 53 ± 3.08 | COc1cccc2c(=O)c3cc(O)ccc3oc12 [Compound 3, 2-hydroxy-5-methoxyxanthone] | > 165 | selective cytotoxic effects |  |
| 16.3 ± 2.12 | > 85.5 | 30.6 ± 3.14 | 35.5 ± 3.28 | 31.3 ± 1.19 | 30.5 ± 1.88 | 37.8 ± 2.92 | 36.9 ± 2.73 | 43.5 ± 2.97 | COc1cc(C2Oc3ccc4c(=O)c5ccccc5oc4c3OC2CO)cc(OC)c1O (stereo not drawn) [Compound 8, 3′-hydroxymethyl-2′-(4″-hydroxy-3″,5″-dimethoxyphenyl)-5′,6′:5,6-(xanthone)-1′,4′-dioxane] | > 85.5 | selective cytotoxic effects |  |
|  |  |  |  |  |  |  |  |  | C[C@H]1C(=O)CC[C@@H]2[C@]1(C)CC[C@H]1[C@@]2(C)CC[C@@]2(C)C3CC(C)(C)CC[C@]3(C)CC[C@]12C (stereo partly drawn) [Compound 2, fridelan-3-one] |  |  | IC50 [20]: > 100 µM |
| 23.3 ± 1.46 | > 91.7 | 12.7 ± 0.75 | 29.7 ± 1.77 | 25.2 ± 1.69 | 22.2 ± 2.88 | > 91.7 | 20.7 ± 1.32 | 54 ± 4.38 | COc1cc(C2Oc3ccc4c(=O)c5c(O)cc(O)cc5oc4c3OC2CO)cc(OC)c1O (stereo not drawn) [Compound 7, 3′-hydroxymethyl-2′-(4″-hydroxy-3″,5″-dimethoxyphenyl)-5′,6′:5,6-(6,8-dihydroxyxanthone)-1′,4′-dioxane] | 20.9 ± 1.17 | selective cytotoxic effects | Selectivity index [16]: 0.83 |
|  |  |  |  |  |  |  |  |  | OO [H2O2, Hydrogen peroxide, reference compound] |  |  | ROS levels ([7]; 50 µM): 94.30% |
| 19.9 ± 2.12 | > 154 | 30.4 ± 2.91 | 106 ± 6.74 | 32.4 ± 3.72 | 20.4 ± 1.17 | 40.2 ± 3.09 | > 154 | 23.2 ± 1.66 | O=c1c2cc(O)c(O)cc2oc2cc(O)cc(O)c12 [Compound 4, 1,3,6,7-tetrahydroxyxanthone] | 45.4 ± 3.52 | selective cytotoxic effects | Selectivity index [16]: 1.40 |

| Compound | IC50 [10] [µM] | IC50 [11] [µM] | IC50 [12] [µM] | IC50 [13] [µM] | IC50 [14] [µM] | IC50 [15] [µM] | IC50 [17] [µM] | IC50 [18] [µM] | IC50 [19] [µM] | IC50 [16] [µM] | cytotoxic effect over the panel (in words) [20] | further results |
| --- | --- | --- | --- | --- | --- | --- | --- | --- | --- | --- | --- | --- |
| O=c1c2ccc(O)c(O)c2oc2cc(O)cc(O)c12 [Compound 5, 1,3,5,6-tetrahydroxyxanthone] | 38.6 ± 2.11 | 112 ± 8.49 | 59 ± 6.01 | 61.4 ± 3.39 | 64.7 ± 5.77 | 62.9 ± 5.32 | 75.5 ± 6.1 | 75.2 ± 4.88 | 38.5 ± 4.07 | 150 ± 7.03 |  | cytotoxic effect against K562 [21]: 12.98 µg/mL; IC50 ([21]; read-out: cytotoxic effect against K562): 49.9 µM |
| COc1cccc2c1C(=O)c1c(O)c3c(c(O)c1C2=O)C[C@@](O)(C(=O)CO)C[C@@H]3O[C@H]1C[C@H](N)[C@H](O)[C@H](C)O1 [Doxorubicin, reference compound] | 0.02 | 1.78 ± 0.08 | 0.98 ± 0.07 | 0.26 ± 0.03 | 4.56 ± 0.48 | 0.79 ± 0.08 |  | 0.13 ± 0.01 |  | 52.9 ± 4.09 |  | cell cycle arrest (phase, in words) [9]: S and G2/M phase arrest |
